Source: patent US20200246298A1, “Composition for Preventing or Treating Asthma Comprising Fatty Acid as Active Ingredient” (Dongshin University Industry-Academy Cooperation, priority 2019, published 2020)

What was measured:
Type in all cases: in vivo, BALB/c mice
Settings in all cases: 5 days, vs OVA-sensitized group
[1] = system: eosinophils, mucus and epithelial hyperplasia; test: H&E staining of lung tissue, OVA-induced asthma
Method: In test groups, the animals determined to be healthy during the acclimation period were ranked by measuring the weight, and were randomly grouped so that the average weight of each group was uniform. The animals were divided into a total of 9 groups: a control group; a control group with OVA-induced asthma; a positive control group; groups administered with each of 50 mg/kg, 125 mg/kg and 250 mg/kg of oleic acid; and groups administered with each of 5 mg/kg, 25 mg/kg and 50 mg/kg of palmitic acid. The animals were sensitized via intraperitoneal injection of OVA once a week for 2 weeks after the acclimation period. During 5 days of week 3, dexamethasone (DEX) and the test substances oleic acid and palmitic acid were orally administered in the morning and 5% OVA solution was inhaled in the afternoon. The test substance was orally administered in an amount of 28 μL per weight (g) of the experimental animal, and OVA for sensitization was administered in a constant amount regardless of the weight. After 5 days of administration, autopsy was performed the next day. Storage of tissue: ½ of the autopsy tissue was frozen quickly in liquid nitrogen, stored in an ultralow-temperature freezer or liquid nitrogen container (about −75 ° C.), and used for PCR/Western blotting, and the remaining ½ was stored in 10% formalin solution and used for histopathology and immunohistochemistry (IHC). […]

IgE = test: Analysis of IgE in BALF (Mouse IgE ELISA), OVA-induced asthma
Method: In test groups, the animals determined to be healthy during the acclimation period were ranked by measuring the weight, and were randomly grouped so that the average weight of each group was uniform. The animals were divided into a total of 9 groups: a control group; a control group with OVA-induced asthma; a positive control group; groups administered with each of 50 mg/kg, 125 mg/kg and 250 mg/kg of oleic acid; and groups administered with each of 5 mg/kg, 25 mg/kg and 50 mg/kg of palmitic acid. The animals were sensitized via intraperitoneal injection of OVA once a week for 2 weeks after the acclimation period. During 5 days of week 3, dexamethasone (DEX) and the test substances oleic acid and palmitic acid were orally administered in the morning and 5% OVA solution was inhaled in the afternoon. The test substance was orally administered in an amount of 28 μL per weight (g) of the experimental animal, and OVA for sensitization was administered in a constant amount regardless of the weight. After 5 days of administration, autopsy was performed the next day. Immunoglobulin E (IgE) is a type of protein called antibody that plays an important role in allergic reactions. When IgE is exposed to a certain substance, the immune system begins to produce IgE in order to protect the body. […] 50 μL of a stop solution was added to each well, and the absorbance at 450 nm was measured.

mucus = test: PAS staining of lung tissue, OVA-induced asthma
Method: In test groups, the animals determined to be healthy during the acclimation period were ranked by measuring the weight, and were randomly grouped so that the average weight of each group was uniform. The animals were divided into a total of 9 groups: a control group; a control group with OVA-induced asthma; a positive control group; groups administered with each of 50 mg/kg, 125 mg/kg and 250 mg/kg of oleic acid; and groups administered with each of 5 mg/kg, 25 mg/kg and 50 mg/kg of palmitic acid. The animals were sensitized via intraperitoneal injection of OVA once a week for 2 weeks after the acclimation period. During 5 days of week 3, dexamethasone (DEX) and the test substances oleic acid and palmitic acid were orally administered in the morning and 5% OVA solution was inhaled in the afternoon. The test substance was orally administered in an amount of 28 μL per weight (g) of the experimental animal, and OVA for sensitization was administered in a constant amount regardless of the weight. After 5 days of administration, autopsy was performed the next day.
Storage of tissue: ½ of the autopsy tissue was frozen quickly in liquid nitrogen, stored in an ultralow-temperature freezer or liquid nitrogen container (about −75 ° C.), and used for PCR/Western blotting, and the remaining ½ was stored in 10% formalin solution and used for histopathology and immunohistochemistry (IHC). […]

CCCCCCCC/C=C\CCCCCCCC(=O)O [oleic acid]
dose-dependently decreased: eosinophils, mucus and epithelial hyperplasia (H&E staining) ([1]; oleic acid 50, 125, 250 mg/kg oral, FIG. 15) | quantity of IgE (IgE; oleic acid 50, 125, 250 mg/kg oral, FIG. 13) | mucus (PAS staining) (mucus; oleic acid 50, 125, 250 mg/kg oral, FIG. 17)

CCCCCCCCCCCCCCCC(=O)O [palmitic acid]
dose-dependently decreased: eosinophils, mucus and epithelial hyperplasia (H&E staining) ([1]; palmitic acid 5, 25, 50 mg/kg oral, FIG. 16) | quantity of IgE (IgE; palmitic acid 5, 25, 50 mg/kg oral, FIG. 14) | mucus (PAS staining) (mucus; palmitic acid 5, 25, 50 mg/kg oral, FIG. 18)
